Data: patent US9296716B2, “Androgen receptor ligands” (THE PROVOST, FELLOWS, FOUNDATION SCHOLARS, & THE OTHER …, priority 2011, dated 2016)
Substitutions are numbered along the chain they refer to. Entries after “also recorded” stand apart in the source; their conditions may differ. Read-outs that look alike come from different tables or passages of the source.

Legend:
LNCaP cells = assay: LNCaP cell proliferation assay (androgen deprived, AlamarBlue); assay type: cell-based; details: 10^−10M, 0.1% DMSO, steroid depleted conditions
Experimental: To determine the optimal DHT concentration and length of treatment required for cell proliferation assays, we tested a range of DHT concentrations in 0.1% DMSO for 5 or 7 days in LNCaP cells cultured in FBS stripped phenol red free media. […] Media and treatments were replaced every second incubation day (FIGS. 12 A and B)
For cell viability (end point) assays LNCaP, PC-3 and PWR-1E cells were seeded at 2.5*10^4/ml density in 200 μl volume of a 96-well plate in triplicate and incubated for 24 hours prior testing. Test compounds were included at different concentrations to achieve a final concentration of 0.5% DMSO in each well. Effect of 0.5% DMSO on cell-viability was also evaluated. Cell viability was assessed after 24 hours of treatment using 10% Alamar Blue reagent (Invitrogen) for each well. Cell viability was monitored by the reduction of resazurin, a blue, cell-permeable and non-toxic compound, to resorufin, a red and highly fluorescent product. Viable cells continuously convert resazurin to resorufin, increasing the overall colour and fluorescence of the media surrounding cells. Fluorescence intensity can be quantitatively determined with a fluorescence microplate reader at excitation/emission 544 nm/590 nm (Spectramax Gemini). For hormone dependent cell proliferation assays in androgen deprived LNCaP cells, cells were seeded at 2*10^4 cells/ml in a 24-well plate in triplicate. Cells were plated in phenol red free RPMI Glutamax (Invitrogen) supplemented with 10% charcoal-stripped FBS to deplete endogenous steroids 48 hours prior the assay as described in previous reports. […] Cells were treated with different concentrations of test compounds with or without 0.1 nM DHT to achieve a final concentration of 0.1% DMSO in each well. A control for the vehicle was included to ensure no effect on viability could be detected. Media and treatments were replaced every second day, after washing the cells twice with 1×PBS. Supernatants were collected after five days for secreted PSA levels evaluation and cell proliferation was assessed for the same plate using Alamar Blue in order to exclude non-specific effects due to toxicity issues.

AR-LBD wt = target: T1, AR-LBD wt (Homo sapiens, UniProt P10275); assay: Lanthascreen TR-FRET AR coactivator (D11-FxxLF) assay, AR-LBD wt; assay type: biochemical; details: for type of AR antagonism (full / partial): TR-FRET in agonist and antagonist mode; for IC50: TR-FRET, D11-FxxLF peptide, DHT = EC80
T1 sequence (P10275 669-900 limits assumed): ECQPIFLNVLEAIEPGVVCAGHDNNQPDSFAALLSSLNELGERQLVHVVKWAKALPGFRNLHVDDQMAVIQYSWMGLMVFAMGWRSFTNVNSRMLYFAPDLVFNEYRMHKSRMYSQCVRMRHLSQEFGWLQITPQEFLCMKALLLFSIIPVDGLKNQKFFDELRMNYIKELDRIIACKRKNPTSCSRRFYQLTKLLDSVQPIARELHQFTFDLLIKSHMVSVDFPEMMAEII

[1] = target: T2, AR LBP (AR-LBD and Fluormone complex) (Rattus norvegicus, UniProt P15207); assay: Fluorescence polarization (PolarScreen) AR competitor assay; assay type: binding; details: for displacement of bound fluorescently-labelled ligand from the LBP: FP assay
T2 construct: purchased Invitrogen P3018
T2 sequence (P15207 651-882 limits assumed): T1 sequence (P10275 669-900 limits assumed)
Source text: The TR-FRET assay cannot differentiate between direct coactivator antagonists acting on the LBD surface and ‘classical’ AR antagonists which also functionally disrupt coactivator recruitment by displacing DHT from the ligand binding pocket.
(§1) Fluorescence polarization assays are susceptible by fluorescence interference/aggregation and light scattering issues by compounds present in the wells. This could lead to false positive or false negative hits. This problem is addressed in and the presence of false ‘hits’ can be determined by plotting the total fluorescence intensity of the assay versus the anisotropy for each compound.
(§2) To minimize the possibility of such false negative or positive reporting, the FP data was rigorously interrogated through examination of both auto-fluorescence and aggregation (FIG. 3). […] Diarylhydrazides are AR Potential Selective Coactivator Interaction Disruptors
PolarScreen Androgen Receptor Competitor Assay Kit Green (Invitrogen, cat no. P3018) was used to investigate the binding of the test compound to the LBP site, occupied by a high affinity ligand (Fluormone).
100× test compound solutions in DMSO were diluted in AR green buffer (Invitrogen) to achieve 2× concentrations and placed in a 384 well plate (Corning, cat no. 3576) with 40 μl volume capacity. AR-LBD was supplemented with 5 mM DTT to prevent protein degradation. AR-LBD and Fluormone (2×) mix are prepared separately and then added to each compound dilution to achieve a final concentration LBD-fluormone of 50 nM and 2 nM respectively. Plates were incubated protected from light for at least 4 hours. Controls included a maximum mP positive control, which consists of the AR-LBD and fluormone mix (2×), and a minimum mP control, containing only Fluormone (2×). A vehicle control was added to account for DMSO effect, and a blank control containing buffer only. Fluorescence polarization was measured with PHERAstar equipment (BMG LabTech) using an optic module with excitation at 485 nm and emission at 530 nm.

AR-LBD T877A mutant = target: T3, AR-LBD T877A mutant (Homo sapiens, UniProt P10275, T878A); assay: TR-FRET coactivator assay, AR T877A mutant; assay type: biochemical; details: D11-FxxLF peptide, DHT = EC80
T3 construct: purchased Invitrogen PV4667
T3 sequence (P10275 669-900 T878A): T1 sequence (P10275 669-900 limits assumed) with T210A

[2] = target: T4, Glucocorticoid Receptor (GR) LBD (Homo sapiens, UniProt P04150); assay: TR-FRET SRC1-4 coactivator recruitment assay, GR LBD; assay type: biochemical; details: Dexamethasone = EC80; for effect on SRC1-4 recruitment by GR LBD: 100 μM to 12.5 μM or single point 100 μM; for IC50: TR-FRET, ± SEM (n = 6), read-out: NR LBDs IC50 (μM) GR
T4 construct: purchased Invitrogen PV4683
T4 sequence (P04150 524-758 limits assumed): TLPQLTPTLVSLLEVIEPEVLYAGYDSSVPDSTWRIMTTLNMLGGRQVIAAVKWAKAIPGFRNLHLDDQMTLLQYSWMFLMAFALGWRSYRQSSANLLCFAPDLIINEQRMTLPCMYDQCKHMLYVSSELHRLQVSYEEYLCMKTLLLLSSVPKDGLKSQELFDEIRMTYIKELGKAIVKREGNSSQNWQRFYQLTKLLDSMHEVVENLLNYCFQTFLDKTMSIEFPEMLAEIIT
Experimental: (§3) Compound binding affinities for Progesterone Receptor (PR), Glucocorticoid Receptor (GR), Estrogen Receptor alpha and Estrogen Receptor beta were determined using TR-FRET (Table 2).
Dexamethasone bound receptor recruitment of the fluorescently labelled SCR1-4 coactivator was unimpaired at screening concentrations up to 100 μM for all the diarylhydrazides evaluated (FIG. 5).
(§4) Lanthascreen TR-FRET AR Coactivator Assay kit (Invitrogen, cat no. PV4381) was used to screen for potential coactivator disruptors.
(§5) TR FRET values were calculated at 10 flashes per well, using a delay time of 100 μs and integration time 200 μs as recommended by the Invitrogen assay guidelines. […] A serial dilution of compounds was firstly prepared in 100×DMSO (Sigma-Aldrich) starting from the maximum desired concentration to achieve a 12 point range concentration using 96-well polypropylene plates (Nalgene Nunc, Rochester, N.Y.). Each 100× solution was diluted to 2× concentration with TR-FRET co-regulator buffer A (Invitrogen proprietary buffer), yielding a final concentration of 1% DMSO in each well.
(§6) D11-FxxLF and Tb antibody were premixed in light protecting vials prior to use. A final concentration of DTT 5 mM was used in the assay buffer in order to prevent protein degradation. All plates (agonist and antagonist mode) were incubated between 2 and 4 hours at room temperature protected from light prior to TR-FRET measurement. […] Data was fitted using the sigmoidal dose response (variable slope) available from Graphpad Prism 5. Y=Bottom+(Top-Bottom)/(1+10^((Log IC50−X)*HillSlope))
(§7) The same procedure was used for AR T877A (Invitrogen cat no. PV4667), PR (Invitrogen cat no. PV4666), ER-α (Invitrogen cat no. PV4544), ER-β (Invitrogen cat no. PV4541) and GR (Invitrogen cat no. PV4683). The assay was adapted to exclude possible non-specific aggregation mechanism of inhibition by adding very low concentration of detergent Triton X-100 (0.001%) to the assay buffer following the Shoichet review guidelines [Shoichet BK (2006) Screening in a spirit haunted world. Drug Discov Today 11:607-615].

[3] = target: T5, Progesterone Receptor (PR) LBD (Homo sapiens, UniProt P06401); assay: TR-FRET SRC1-4 coactivator recruitment assay, PR LBD; assay type: biochemical; details: Progesterone = EC80; for effect on PR recruitment of fluorescent labelled SRC1-4: 100 μM to 45 nM; for IC50: TR-FRET, ± SEM (n = 6), read-out: NR LBDs IC50 (μM) PR
T5 construct: purchased Invitrogen PV4666
T5 sequence (P06401 679-913 limits assumed): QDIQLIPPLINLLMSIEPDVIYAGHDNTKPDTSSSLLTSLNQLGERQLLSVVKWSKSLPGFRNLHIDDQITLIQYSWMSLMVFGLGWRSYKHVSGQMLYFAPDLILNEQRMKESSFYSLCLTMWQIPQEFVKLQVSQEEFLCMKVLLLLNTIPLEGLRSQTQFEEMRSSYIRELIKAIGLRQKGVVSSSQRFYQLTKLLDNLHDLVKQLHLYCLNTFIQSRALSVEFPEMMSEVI
Experimental: as §3, §4, §5, §6, §7

[4] = target: T6, Estrogen Receptor alpha (ER-α) LBD (Homo sapiens, UniProt P03372); assay: TR-FRET PGC1-α coactivator recruitment assay, ERα LBD; assay type: biochemical; details: Estradiol = EC80; for effect on ERα recruitment of fluorescent labelled PGC1-α: 100 μM to 45 nM; for IC50: TR-FRET, ± SEM (n = 6), read-out: NR LBDs IC50 (μM) ER-α
T6 sequence (P03372 311-547 limits assumed): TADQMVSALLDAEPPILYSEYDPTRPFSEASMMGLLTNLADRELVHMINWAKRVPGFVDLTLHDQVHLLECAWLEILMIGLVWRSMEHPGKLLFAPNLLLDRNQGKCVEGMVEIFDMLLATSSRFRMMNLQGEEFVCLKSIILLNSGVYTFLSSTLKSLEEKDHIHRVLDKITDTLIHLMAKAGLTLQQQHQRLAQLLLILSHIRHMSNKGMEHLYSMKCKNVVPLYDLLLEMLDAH
Experimental: as §3
(§8) Selectivity of the diarylhydrazide scaffold for the AR was determined through a TR-FRET assay in ERα (FIGS. 8A & 9A1) and ERR (FIGS. 8B & 9A2). […] The non-LBP nature of this inhibition was confirmed by a FP assay (FIGS. 9C, 9B1 & 9B2).
as §4, §5, §6, §7

[5] = target: Estrogen Receptor beta (ER-β) LBD (Homo sapiens, UniProt Q92731); assay: TR-FRET PGC1-α coactivator recruitment assay, ERβ LBD; assay type: biochemical; details: Estradiol = EC80; for effect on ERβ recruitment of fluorescent labelled PGC1-α: 100 μM to 45 nM; for IC50: TR-FRET, ± SEM (n = 6), read-out: NR LBDs IC50 (μM) ER-β
Experimental: as §3, §8, §4, §5, §6, §7

[6] = Solubility in FP assay buffer (fluorescence interference/aggregation check); assay type: physicochemical; details: high concentration (50 μM)
Source text: as §1, §2

Estrogen Receptor beta (ER-β) LBD, sequence (Q92731 264-498 limits assumed): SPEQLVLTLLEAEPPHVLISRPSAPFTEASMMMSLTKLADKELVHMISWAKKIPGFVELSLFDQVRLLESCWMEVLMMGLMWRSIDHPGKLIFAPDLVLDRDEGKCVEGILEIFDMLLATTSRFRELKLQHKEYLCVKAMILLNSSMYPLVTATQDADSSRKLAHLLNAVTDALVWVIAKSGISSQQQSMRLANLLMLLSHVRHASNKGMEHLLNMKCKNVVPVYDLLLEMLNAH

| SMILES | increase of LNCaP cell proliferation (LNCaP cells) [fold] | type of AR antagonism (full / partial) (AR-LBD wt) | displacement of bound fluorescently-labelled ligand from the LBP [1] | IC50 (AR-LBD wt; read-out: AR (wt)) [µM] | IC50 (AR-LBD wt; read-out: Activity (AR wt TR-FRET)) [µM] | IC50 (AR-LBD T877A mutant) [µM] | effect on SRC1-4 recruitment by GR LBD [2] | IC50 [2] [µM] | effect on PR recruitment of fluorescent labelled SRC1-4 [3] | IC50 [3] [µM] | effect on ERα recruitment of fluorescent labelled PGC1-α [4] | IC50 [4] [µM] | effect on ERβ recruitment of fluorescent labelled PGC1-α [5] | IC50 [5] [µM] | inhibition at 1 µM ([1]; FP, 1 μM, read-out: inhibition of the LBD-F complex) [%] | solubility in the chosen assay buffer [6] |
| --- | --- | --- | --- | --- | --- | --- | --- | --- | --- | --- | --- | --- | --- | --- | --- | --- |
| C[C@]12CCC(=O)C[C@@H]1CC[C@@H]1[C@@H]2CC[C@]2(C)[C@@H](O)CC[C@@H]12 [DHT, dihydrotestosterone, reference compound] | 2 |  |  |  |  |  |  |  |  |  |  |  |  |  |  |  |
| COc1cc(/C=N/NC(=O)c2cc3c(ccc4ccccc43)o2)cc(I)c1O [MDG15] |  | full AR antagonists | inability to displace |  |  |  |  |  |  |  |  |  |  |  |  |  |
| O=C(N/N=C/c1cccc(O)c1O)c1cc2ccccc2cc1O [MDG173] |  | full AR antagonists | inability to displace |  |  |  |  |  |  |  |  |  |  |  |  |  |
| O=C(N/N=C/c1cc(Br)ccc1O)c1cc2ccccc2cc1O [MDG292] |  | full AR antagonism; also recorded: full AR antagonists |  | 13.3 ± 3.1 | 13.3 ± 3.1 | 12.4 ± 2.2 | do not affect | > 100 | partially inhibit | 22.5 ± 5.4 | partially inhibit | > 100 | partially inhibit | > 100 |  |  |
| O=C(N/N=C/c1cc2ccccc2cc1O)c1cc2ccccc2cc1O [MDG483] |  | full AR antagonists |  |  |  |  | do not affect | > 100 | partially inhibit | 8.4 ± 1.4 | partially inhibit | 10.2 ± 3 | partially inhibit | 12 ± 0.4 | ~0 | solubility issues |
